Data on 15 compounds can be found in patent US11180487B2, “Substituted cyanoindoline derivatives as NIK inhibitors” (Janssen Pharmaceutica NV, priority 2016, dated 2021).

The subject of series [1] is KMS12-BM (NIK WT) multiple myeloma cells. Briefly: Antiproliferative activity on KMS12-BM multiple myeloma cells (CellTiter-Glo, 96 hr), Biological Assay C. The series is classed as cell-based, human. The note with it: Homo sapiens, KMS-12-BM, 96 h, averaged values, read-out: KMS-12 Proliferation inhibition (IC50 (nM)). The procedure: (§1) Determination of Antiproliferative Activity on JJN-3 (NIK Translocated) and KMS12-BM (NIK WT) Multiple Myeloma Cells
(§2) All compounds tested were dissolved in DMSO and further dilutions were made in culture medium. Final DMSO concentration was 0.3% (v/v) in cell proliferation assays. Viability was assessed using CellTiter-Glo cell viability assay kit (Promega). The human JJN-3 and KMS12-BM cells (DSMZ) were cultured in RPMI 1640 medium supplemented with 2 mM L-glutamine, and 10% fetal calf serum (PAA). Cells were routinely kept as suspension cells at 37° C. in a humidified 5% CO2 atmosphere. Cells were passaged at a seeding density of 0.2×10^6/ml twice a week. Cells were seeded in black tissue culture treated 96-well plates (Perkin Elmer). Densities used for plating ranged from 15000 (JJN3) to 20000 (KMS12BM) cells per well in a total volume of 135 μl medium. Drugs and/or solvents were added (15 μl) to a final volume of 150 μl. Following 96 hr of treatment, plates were removed from the incubator and allowed to equilibrate to room temperature for approx 10 min. 75 μl CellTiter-Glo reagent was added to each well that was then covered (Perkin Elmer Topseal) and shaken on plate shaker for 10 min. Luminescence was measured on a HTS Topcount (Perkin Elmer).
(§3) Within an experiment, the results for each treatment were the mean of 2 replicate wells. For initial screening purposes, compounds were tested using a 9 point dilution curve (serial 1:3 dilutions). For each experiment, controls (containing no drug) and a blank incubation (containing cells read at the time of compound addition) were run in parallel. The blank value was subtracted from all control and sample values. For each sample, the mean value for cell growth (in relative light units) was expressed as a percentage of the mean value for cell growth of the control.
(ATP-based viability assays read luminescence as a measure of living cells.)

For series [2], the system named is JJN-3 (NIK translocated) multiple myeloma cells. Briefly: Antiproliferative activity on JJN-3 multiple myeloma cells (CellTiter-Glo, 96 hr), Biological Assay C. The series is classed as cell-based, human. The note with it: Homo sapiens, JJN-3, 96 h, JJN-3 (NIK translocated) cells, averaged values, read-out: JJN-3 Proliferation inhibition (IC50 (nM)). The procedure: as §1, §2, §3

In series [3] the target is recombinant human NF-kappaB-inducing kinase (NIK/MAP3K14) (Homo sapiens, UniProt Q99558). Briefly: Inhibition of auto-phosphorylation of recombinant human NIK/MAP3K14 activity (AlphaScreen), Biological Assay A. In kind it is biochemical. The note with it: averaged values over all measurements on all batches. The procedure:
Inhibition of Auto-Phosphorylation of Recombinant Human NF-kappaB-Inducing Kinase (NIK/MAP3K14) Activity (AlphaScreen®)
NIK/MAP3K14 auto-phosphorylation activity was measured using the AlphaScreen® (αscreen) format (Perkin Elmer). All compounds tested were dissolved in dimethyl sulfoxide (DMSO) and further dilutions were made in assay buffer. Final DMSO concentration was 1% (v/v) in assays. Assay buffer was 50 mM Tris pH 7.5 containing 1 mM EGTA (ethylene glycol tetraacetic acid), 1 mM DTT (dithiothreitol), 0.1 mM Na3VO4, 5 mM MgCl2, 0.01% Tween® 20. Assays were carried out in 384 well Alphaplates (Perkin Elmer). Incubations consisted of compound, 25 microM Adenosine-5′-triphosphate (ATP), and 0.2 nM NIK/MAP3K14. Incubations were initiated by addition of GST-tagged NIK/MAP3K14 enzyme, carried out for 1 h at 25° C. and terminated by addition of stop buffer containing anti-phospho-IKK Ser176/180 antibody. Protein A Acceptor and Glutathione-Donor beads were added before reading using an EnVision® Multilabel Plate Reader (Perkin Elmer). Signal obtained in the wells containing blank samples was subtracted from all other wells and IC50's were determined by fitting a sigmoidal curve to % inhibition of control versus Log10 compound concentration.

Broadly, the melting point is the temperature of the solid-liquid transition.

Sequence of recombinant human NF-kappaB-inducing kinase (NIK/MAP3K14) (Q99558 whole entry): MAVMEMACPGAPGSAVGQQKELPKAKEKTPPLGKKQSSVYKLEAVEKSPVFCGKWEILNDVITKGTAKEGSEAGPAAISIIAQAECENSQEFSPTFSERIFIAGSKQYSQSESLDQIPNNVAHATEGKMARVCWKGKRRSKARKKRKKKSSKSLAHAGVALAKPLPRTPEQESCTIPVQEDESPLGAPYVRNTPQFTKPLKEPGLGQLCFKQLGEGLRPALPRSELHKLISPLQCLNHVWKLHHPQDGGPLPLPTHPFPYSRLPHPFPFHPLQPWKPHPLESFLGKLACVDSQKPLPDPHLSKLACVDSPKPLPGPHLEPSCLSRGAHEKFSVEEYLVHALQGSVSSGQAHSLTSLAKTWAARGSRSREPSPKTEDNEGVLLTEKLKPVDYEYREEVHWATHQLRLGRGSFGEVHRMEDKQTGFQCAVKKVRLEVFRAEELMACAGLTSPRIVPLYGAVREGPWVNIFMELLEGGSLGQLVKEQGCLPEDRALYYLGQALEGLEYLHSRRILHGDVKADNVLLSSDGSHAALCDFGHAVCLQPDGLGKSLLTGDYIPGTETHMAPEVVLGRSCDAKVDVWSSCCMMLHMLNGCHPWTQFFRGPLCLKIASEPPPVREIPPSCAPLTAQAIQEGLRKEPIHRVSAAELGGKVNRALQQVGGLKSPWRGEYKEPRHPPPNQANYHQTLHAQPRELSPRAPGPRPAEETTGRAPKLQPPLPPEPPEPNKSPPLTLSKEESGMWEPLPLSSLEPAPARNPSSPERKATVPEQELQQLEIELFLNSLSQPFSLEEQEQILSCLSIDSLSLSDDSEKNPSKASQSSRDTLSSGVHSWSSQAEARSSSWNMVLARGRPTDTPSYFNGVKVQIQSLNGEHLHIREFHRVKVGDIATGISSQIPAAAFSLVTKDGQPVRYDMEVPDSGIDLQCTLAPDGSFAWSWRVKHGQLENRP

With `C[C@]1(CO)CNc2c(C#N)cc(-c3ccnc(Nc4cc(C#N)ccc4C(F)(F)F)n3)cc21` [Compound 70], the melting point is 237 °C. Moreover, the IC50 in series [1] was greater than 10000 nM. The IC50 in series [2] amounted to 2190 nM. Also, the IC50 in series [3] worked out at 3.9 nM.

Take `C[C@]1(CO)CNc2c(C#N)cc(-c3ccnc(Nc4cc(C#N)ccc4C4CC4)n3)cc21` [Compound 71]: the melting point came to 210 °C. In series [1], the IC50 was greater than 10000 nM. The IC50 in series [2] amounted to 148 nM. For the same compound, in series [3], the IC50 stood at 7.2 nM.

As to `COCCCc1ccc(Cl)cc1Nc1nccc(-c2cc(C#N)c3c(c2)[C@@](C)(CO)CN3)n1` [Compound 72], the melting point amounted to 189 °C. The IC50 in series [1] was greater than 10000 nM. In series [2], the IC50 came out at 123 nM. Also, the IC50 in series [3] worked out at 11 nM.

`Cc1cc(C2CCOCC2)c(C#N)cc1Nc1nccc(-c2cc(C#N)c3c(c2)[C@@](C)(CO)CN3)n1` [Compound 75]: the melting point was 228 °C. For the same compound, in series [1], the IC50 is roughly 3310 nM. In addition, the IC50 in series [2] is 105 nM. Further, the IC50 in series [3] came to 3.6 nM.

`CC1(C)CNc2c(C#N)cc(-c3ccnc(Nc4cc(Cl)ccc4OC4CCN(C5CC5)CC4)n3)cc21` [Compound 99] came in with a melting point of 120 °C. Moreover, the IC50 in series [1] turned out to be 8320 nM. In addition, in series [2], the IC50 was 380 nM. Moreover, the IC50 in series [3] was 219 nM.

Take `COCCOc1ccc(Cl)cc1Nc1nccc(-c2cc(C#N)c3c(c2)C(C)(C)CN3)n1` [Compound 100]: the melting point came out at 171 °C. For the same compound, the IC50 in series [1] was greater than 10000 nM. Moreover, in series [2], the IC50 stood at 1410 nM. Also, the IC50 in series [3] turned out to be 91.2 nM.

For the compound `CN1CCCC(Oc2ccc(Cl)cc2Nc2nccc(-c3cc(C#N)c4c(c3)C(C)(C)CN4)n2)C1` (stereo not drawn) [Compound 101], the melting point was 104 °C. In addition, in series [1], the IC50 is 1350 nM. The IC50 in series [2] came out at 447 nM. Further, in series [3], the IC50 came out at 49 nM.

Compound `CC(C)Oc1ccc(Cl)cc1Nc1nccc(-c2cc(C#N)c3c(c2)C(C)(C)CN3)n1` [Compound 102] gave a melting point of 112 °C. Also, the IC50 in series [1] was greater than 10000 nM. The IC50 in series [2] worked out at 3550 nM. Moreover, in series [3], the IC50 was 403 nM.

`CC1(C)CNc2c(C#N)cc(-c3ccnc(Nc4cc(Cl)ccc4OC4CCOCC4)n3)cc21` [Compound 103] yielded a melting point of 126 °C. In series [1], the IC50 is greater than 10000 nM. Besides, the IC50 in series [2] was determined as 3720 nM. Further, in series [3], the IC50 was determined as 105 nM.

In the case of `COc1cc(Nc2nccc(-c3cc(C#N)c4c(c3)C(C)(C)CN4)n2)c(F)c(OC)c1` [Compound 104], the melting point came to 176 °C. The IC50 in series [1] is greater than 10000 nM. Besides, in series [2], the IC50 is 2140 nM. Moreover, in series [3], the IC50 worked out at 12 nM.

The compound `CC1(C)CNc2c(C#N)cc(-c3ccnc(Nc4cc(Cl)ccc4OCCO)n3)cc21` [Compound 107] returned a melting point of 176 °C. In series [1], the IC50 was greater than 10000 nM. In series [2], the IC50 amounted to 1020 nM. Besides, the IC50 in series [3] was determined as 41.7 nM.

For `CC1(C)CNc2c(C#N)cc(-c3ccnc(Nc4ccccc4C(=O)N4CCC(O)C4)n3)cc21` (stereo not drawn) [Compound 111], the melting point worked out at 219 °C. Also, the IC50 in series [1] was greater than 10000 nM. For the same compound, in series [2], the IC50 is 3470 nM. For the same compound, the IC50 in series [3] stood at 3550 nM.

The compound `COc1cc(C(=O)NCC(C)O)c(Cl)cc1Nc1nccc(-c2cc(C#N)c3c(c2)C(C)(C)CN3)n1` (stereo not drawn) [Compound 112] returned a melting point greater than 260 °C. For the same compound, in series [1], the IC50 was greater than 10000 nM. Further, in series [2], the IC50 was determined as 20 nM. In series [3], the IC50 came out at 4.3 nM.

In the case of `COc1cc(C(=O)N2CC3(CCCNC3)C2)c(Cl)cc1Nc1nccc(-c2cc(C#N)c3c(c2)C(C)(C)CN3)n1` [Compound 113], the melting point was 178 °C. For the same compound, the IC50 in series [1] is roughly 407 nM. In addition, the IC50 in series [2] is 28 nM. The IC50 in series [3] came to 2.6 nM.

`COc1cc(C(=O)N2CC3(CCNCC3)C2)c(Cl)cc1Nc1nccc(-c2cc(C#N)c3c(c2)C(C)(C)CN3)n1` [Compound 114] showed a melting point of 206 °C. In addition, the IC50 in series [1] stood at 490 nM. The IC50 in series [2] amounted to 19 nM. Moreover, in series [3], the IC50 is 2.2 nM.
